The Deep4Chem optical property database
“And” between values parts separate entries of the source, which are not always exact repeats. Identical values can stand only once. Each block holds one compound with its values, some of them ahead of it.

Assay: photoluminescence quantum yield (fraction); solvent given as SMILES
[1] = in O=P(c1ccccc1)(c1ccccc1)c1ccccc1Oc1ccccc1P(=O)(c1ccccc1)c1ccccc1

SMILES: O=[N+]([O-])c1ccc([N+]2=Cc3ccc4c5c(ccc4c3O[B-]2(c2ccccc2)c2ccccc2)C=[N+](c2ccc([N+](=O)[O-])cc2)[B-](c2ccccc2)(c2ccccc2)O5)cc1
photoluminescence quantum yield (in Cc1ccccc1): 0.63
photoluminescence quantum yield (in ClCCl): 0.48

photoluminescence quantum yield (in ClCCl): 0.01
SMILES: CN(C)c1ccc(/C=C/c2ncccn2)cc1

photoluminescence quantum yield (in CC#N): 0.81
SMILES: CC1=[N+]2C(=C(c3ccccc3)c3c4c(c(C)n3[B-]2(F)F)C2CCC4CC2)C2=C1C1CCC2CC1

photoluminescence quantum yield (in ClCCl): 0.21
SMILES: CN(C)c1ccc(-c2cc(-c3ccc(C#N)cc3)nn2C)cc1

SMILES: CC(C)(C)c1ccc2c(c1)c1cc(C(C)(C)C)ccc1n2-c1ccc(C#Cc2ccc(C=C(C#N)C#N)cc2)cc1
photoluminescence quantum yield (in CC#N): 0.33
photoluminescence quantum yield (in CCCCC): 0.5
photoluminescence quantum yield (in Cc1ccccc1): 0.48
photoluminescence quantum yield (in ClCCl): 0.4

photoluminescence quantum yield (in CCO): 0.0956
photoluminescence quantum yield (in ClCCl): 0.152
photoluminescence quantum yield (in O): 0.01
SMILES: N#CC(C#N)=Cc1ccc(-c2cccc(-c3nc4ccccc4s3)c2O)s1

photoluminescence quantum yield (in ClCCl): 0.79
SMILES: C(#Cc1c2ccccc2c(-c2ccccc2)c2cc3ccccc3cc12)c1ccccc1

photoluminescence quantum yield (in C1CCCCC1): 0.3
SMILES: C[Si](C)(C)c1cccc2ccccc12

photoluminescence quantum yield (in C1COCCO1): 0.14
photoluminescence quantum yield (in CC#N): 0.14
photoluminescence quantum yield (in CO): 0.11
photoluminescence quantum yield (in ClCCCl): 0.12
SMILES: CCn1c(=O)nc2n(C)c3cc(C)ccc3nc-2c1=O

photoluminescence quantum yield (in CC#N): 0.003
photoluminescence quantum yield (in CCCCCC): 0.003
photoluminescence quantum yield (in CO): 0.003
photoluminescence quantum yield (in c1ccccc1): 0.003 and 0.002
SMILES: O=c1oc2cc3ccccc3cc2nc1-c1ccccc1

photoluminescence quantum yield (in ClCCl): 0.28
SMILES: Cc1ccc(-c2cccc3ncc(-c4ccccc4)n23)cc1

SMILES: CC1(C)c2ccccc2N(c2ccc(-c3nc(-c4ccccc4)cc(-c4ccccc4)n3)cc2)c2ccccc21
photoluminescence quantum yield (in CC#N): 0.018
photoluminescence quantum yield (in Cc1ccccc1): 0.339
photoluminescence quantum yield (in ClCCl): 0.632
photoluminescence quantum yield [1]: 0.61

photoluminescence quantum yield (in C1COCCO1): 0.16
photoluminescence quantum yield (in CCO): 0.15
photoluminescence quantum yield (in CN(C)C=O): 0.16
photoluminescence quantum yield (in ClC(Cl)Cl): 0.17
SMILES: CCCCCCCN1C(=CC2=C([O-])C(=CC3=[N+](CCCCCCC)c4ccccc4C3(C)C)C2=C(C#N)C#N)Sc2ccccc21

SMILES: CC(C)(C)c1ccc(N(c2ccc(C(C)(C)C)cc2)c2ccc(S(=O)(=O)c3ccc(N(c4ccc(C(C)(C)C)cc4)c4ccc(C(C)(C)C)cc4)cc3)cc2)cc1
photoluminescence quantum yield (in Cc1ccccc1): 0.65

SMILES: Cn1nc(-c2ccccc2)c2n[nH]nc2c1=O
photoluminescence quantum yield (in CC#N): 0.34
photoluminescence quantum yield (in CCO): 0.21
photoluminescence quantum yield (in Cc1ccccc1): 0.23

photoluminescence quantum yield (in ClCCl): 0.44
SMILES: CCCc1ccc(C#Cc2cc(C#Cc3ccc(CCC)cc3)c3ccc4c(C#Cc5ccc(N(C)C)cc5)cc(C#Cc5ccc(CCC)cc5)c5ccc2c3c54)cc1

photoluminescence quantum yield (in CC#N): 0.003
photoluminescence quantum yield (in CO): 0.003
photoluminescence quantum yield (in O): 0.003
SMILES: CSc1ccc2c(c1)N(CCCN(C)C)c1ccccc1S2

SMILES: Cc1ccc(-n2c(-c3ccccc3NS(=O)(=O)c3ccc(C)cc3)nc3c4ccccc4c4ccccc4c32)cc1
photoluminescence quantum yield (in Cc1ccccc1): 0.007

photoluminescence quantum yield (in ClCCl): 0.064
SMILES: CCn1c2c(-c3cccs3)cc(C(C)(C)C)cc2c2cc(C(C)(C)C)cc(-c3cccs3)c21

SMILES: CN(C)c1ccc(C(=O)Nc2ccc([N+](=O)[O-])cc2)cc1
photoluminescence quantum yield (in C1CCCCC1): 0.0001
photoluminescence quantum yield (in C1CCOC1): 0.0003
photoluminescence quantum yield (in CC#N): 0.0002
photoluminescence quantum yield (in CCOCC): 0.0006

photoluminescence quantum yield (in CC#N): 0.13
SMILES: O=C(O)c1ccc(-c2nc(-c3ccccc3)c3ccccn23)cc1

photoluminescence quantum yield (in ClCCl): 0.89
SMILES: c1cc2c3c(c1)ccc1[n+]3[B-]3(Oc4cccc5ccc6[n+](c45)[B-](O2)(O3)n2c-6cc3c4ccccc4c4ccccc4c32)n2c-1cc1c3ccccc3c3ccccc3c12

SMILES: c1ccc(-n2c(-c3cccc4ccccc34)nc3c4cccc5ccc6cccc(c6c54)c32)cc1
photoluminescence quantum yield (in Cc1ccccc1): 1

photoluminescence quantum yield (in ClC(Cl)Cl): 0.072
SMILES: CC(C)(C)c1cccc2c1oc1nc3oc4ccc(-n5c6ccccc6c6ccccc65)cc4c3cc12

photoluminescence quantum yield (in ClCCl): 0.4
SMILES: Cc1cc(C)c(C2=C3C=C(/C=C/C(=O)OC(C)(C)C)C=[N+]3[B-](F)(F)n3cc(/C=C/C(=O)OC(C)(C)C)cc32)c(C)c1

SMILES: c1ccc(-c2nc(-c3ccccc3)nc(-c3ccc(-n4c5ccccc5c5c6c(ccc54)-c4ccccc4C6(c4ccccc4)c4ccccc4)cc3)n2)cc1
photoluminescence quantum yield [1]: 0.979

photoluminescence quantum yield (in C1CCCCC1): 0.7
SMILES: CB1C=Cc2ccc3ccccc3c2N1

photoluminescence quantum yield (in ClC(Cl)Cl): 0.006
SMILES: CCCCCCN1C(=O)c2cccc3cc(/N=C\c4cnc5ccccc5c4)cc(c23)C1=O

photoluminescence quantum yield (in C1CCOC1): 0.5
photoluminescence quantum yield (in CC#N): 0.02
photoluminescence quantum yield (in CCO): 0.01
photoluminescence quantum yield (in CCOC(C)=O): 0.42
photoluminescence quantum yield (in CN(C)C=O): 0.03
photoluminescence quantum yield (in ClCCl): 0.26
photoluminescence quantum yield (in c1ccccc1): 0.93
SMILES: COc1ccc([C@@H]2C[C@](O)(c3ccccn3)C[C@](O)(c3ccccn3)[C@H]2C(=O)c2ccc(N(c3ccccc3)c3ccccc3)cc2)cc1

SMILES: COc1ccc(C2=C(c3ccc(C)cc3)C(c3ccccc3)=[N+]3C2=Nc2c(-c4ccc(OC)cc4)c(-c4ccc(C)cc4)c(-c4ccccc4)n2[B-]3(F)F)cc1
photoluminescence quantum yield (in Cc1ccccc1): 0.01

photoluminescence quantum yield (in ClCCl): 0.8
SMILES: C(=C\c1cc(-c2ccccc2)c(/C=C/c2ccc(N(c3ccccc3)c3ccccc3)cc2)cc1-c1ccccc1)/c1ccc(N(c2ccccc2)c2ccccc2)cc1

photoluminescence quantum yield (in CS(C)=O): 0.049
SMILES: CCOC(=O)C1=C(N)n2c(=O)c3ccccc3c(=O)n2C1c1ccc([N+](=O)[O-])cc1 (stereo not drawn)

SMILES: Cc1ccc(N(c2ccc(C)cc2)c2ccc(-c3ccc4c(c3)C(=O)c3ccccc3C4=O)cc2)cc1
photoluminescence quantum yield (in C1CCOC1): 0
photoluminescence quantum yield (in CCCCCC): 0.403
photoluminescence quantum yield (in CCOC(C)=O): 0
photoluminescence quantum yield (in CCOCC): 0.0041
photoluminescence quantum yield (in Cc1ccccc1): 0.0801
photoluminescence quantum yield (in ClC(Cl)(Cl)Cl): 0.246
photoluminescence quantum yield (in ClCCl): 0

photoluminescence quantum yield (in CCCCCC): 0.89
photoluminescence quantum yield (in CCCCCCCCO): 0.88
photoluminescence quantum yield (in CCOC(C)=O): 0.84
photoluminescence quantum yield (in CN(C)C=O): 0.6
photoluminescence quantum yield (in ClCCl): 0.89
SMILES: CC1=CC(C)=[N+]2C1=Cc1c3ccccc3c(C#Cc3ccccc3)n1[B-]2(F)F

photoluminescence quantum yield (in C1COCCO1): 0.78
photoluminescence quantum yield (in CC#N): 0.67
photoluminescence quantum yield (in CCCCCC): 0.72
photoluminescence quantum yield (in CCO): 0.62
SMILES: CCC12C(=C3C(=C4c5ccc(-c6ccc(C)s6)cc5S(=O)(=O)C41CC)C(F)(F)C(F)(F)C3(F)F)c1ccc(-c3ccc(C)s3)cc1S2(=O)=O (stereo not drawn)

photoluminescence quantum yield (in ClC(Cl)Cl): 0.59
SMILES: CCCCCCCCOc1ccc(-c2c3c4n(c(-c5ccc(OCCCCCCCC)cc5)c3c3n2[B-](F)(F)[n+]2c(ccc5cc(C(C)(C)C)ccc52)C=3C#N)[B-](F)(F)[n+]2c(ccc3cc(C(C)(C)C)ccc32)C=4C#N)cc1

photoluminescence quantum yield (in CC#N): 0.829
SMILES: N#Cc1nn(-c2ccc(Cl)cc2)nc1N1CCCC1

photoluminescence quantum yield (in ClCCl): 0.143
SMILES: C(S/C=C/c1ccc(-c2ccc(/C=C/SC=C(c3ccccc3)c3ccccc3)cc2)cc1)=C(c1ccccc1)c1ccccc1

photoluminescence quantum yield (in ClCCl): 0.36
SMILES: c1ccc(C2c3ccccc3-c3cc4c(cc32)-c2ccccc2C4c2ccccc2)cc1 (stereo not drawn)

photoluminescence quantum yield (in C1CCOC1): 0.588
SMILES: c1ccc(-c2nc3c4ccccc4c4ccccc4c3n2-c2ccccc2)cc1

SMILES: c1ccc(-c2nn(-c3ccccc3)c3nc4ccccc4cc23)cc1
photoluminescence quantum yield (in C1CCCCC1): 0.86
photoluminescence quantum yield (in C1CCOC1): 0.9
photoluminescence quantum yield (in CC#N): 0.73
photoluminescence quantum yield (in CC(C)=O): 0.85
photoluminescence quantum yield (in CCCCCl): 0.91
photoluminescence quantum yield (in CCCCOCCCC): 0.88
photoluminescence quantum yield (in CN(C)C=O): 0.78

photoluminescence quantum yield (in ClC(Cl)Cl): 0.1
SMILES: Cc1cc(=O)oc2cc3c(cc12)c1c2ccccc2c2ccccc2c1c1c2ccccc2c2ccccc2c31

photoluminescence quantum yield (in ClCCl): 0.09
SMILES: COc1cccc(C2=C3C=C(/C=C/C(=O)OC(C)(C)C)C=[N+]3[B-](F)(F)n3cccc32)c1

photoluminescence quantum yield (in C1CCCCC1): 0.062
photoluminescence quantum yield (in CC#N): 0.32
photoluminescence quantum yield (in CCCCCC): 0.16
photoluminescence quantum yield (in CCO): 0.19
photoluminescence quantum yield (in O): 0.0019
photoluminescence quantum yield (in OCC(F)(F)F): 0.0054
SMILES: N#Cc1cccc(N)c1

photoluminescence quantum yield (in ClCCl): 0.85
SMILES: CCOC(=O)/N=c1/oc2cc(N(CC)CC)ccc2cc1C#N

photoluminescence quantum yield (in ClCCl): 0.76
SMILES: CN(C)c1ccc(C#Cc2ccc3c(N(C)C)cc(-c4ccccc4)cc3c2)cc1

photoluminescence quantum yield (in ClCCl): 0.77
SMILES: Cc1cccc(-c2c3ccccc3c(-c3cccc(C)n3)c3ccccc23)n1

SMILES: CC1(C)c2ccccc2-c2cc3c4ccccc4n(-c4ccc(-c5nc(-c6ccccc6)nc(-c6ccccc6)n5)cc4)c3cc21
photoluminescence quantum yield [1]: 0.933

photoluminescence quantum yield (in ClCCl): 0.265
photoluminescence quantum yield (in O): 0.009
SMILES: CC[N+](CC)=c1ccc2cc3c(=O)oc4cc5c(cc4c3oc-2c1)CCCN5C

photoluminescence quantum yield (in C1CCCCC1): 0.36
photoluminescence quantum yield (in CC#N): 0.38
photoluminescence quantum yield (in CCO): 0.47
photoluminescence quantum yield (in CCOC(C)=O): 0.44
photoluminescence quantum yield (in O): 0.34
SMILES: COC(=O)c1nc(-c2ccccc2)oc1C

SMILES: c1ccc(-c2nc(-c3ccccc3)nc(-n3c4ccccc4c4cc(-n5c6ccccc6c6ccccc65)ccc43)n2)cc1
photoluminescence quantum yield [1]: 0.62

photoluminescence quantum yield (in C1CCCCC1): 0.003
photoluminescence quantum yield (in CO): 0.001
SMILES: C/C(=C\c1ccc(C)cc1)c1nc2ccccc2s1

photoluminescence quantum yield (in O): 0.32
SMILES: Cc1ccc(C)c(C2=C3C=CC(=[N+](C)C)C=C3[Si](C)(C)c3cc(N(C)C)ccc32)c1

photoluminescence quantum yield (in C1CCOC1): 0.0016
SMILES: C1=Cc2ccccc2C(=Cc2ccc(-c3cc(-c4ccc(C=C5c6ccccc6C=Cc6ccccc65)cc4)c(-c4ccc(C=C5c6ccccc6C=Cc6ccccc65)cc4)cc3-c3ccc(C=C4c5ccccc5C=Cc5ccccc54)cc3)cc2)c2ccccc21

photoluminescence quantum yield (in C1CCCCC1): 0.5
photoluminescence quantum yield (in CC#N): 0.017
SMILES: C[Si](C)(c1cccc2ccccc12)[Si](C)(C)[Si](C)(C)[Si](C)(C)[Si](C)(C)[Si](C)(C)c1c2ccccc2cc2ccccc12

photoluminescence quantum yield (in C1CCOC1): 0.23
SMILES: CCC1(CC)c2ccccc2-c2c1c1c(c3c2C(CC)(CC)c2cc(/C=C/c4cccs4)ccc2-3)C(CC)(CC)c2ccccc2-1
